Results on twelve compounds are retold here after ChEMBL document CHEMBL4152314, “Symmetrical and unsymmetrical substituted 2,5-diarylidene cyclohexanones as anti-parasitic compounds” (Eur J Med Chem, 2018).

Data set [1] deals with Trypanosoma cruzi. The data set can be described thus: Antiparasitic activity against epimastigote form of Trypanosoma cruzi Y assessed as parasite growth inhibition after 96 hrs by Neubauer hemocytometer. The class given is functional, organism-based.
Data set [2] deals with Trypanosoma cruzi. The data set can be described thus: Antiparasitic activity against trypomastigote form of Trypanosoma cruzi assessed as parasite lysis after 24 hrs by Pizzi-Brener method. The data set is classed as functional, organism-based.
The next data set has as its system Leishmania amazonensis. As to the kind of experiment: Antiparasitic activity against promastigote form of Leishmania amazonensis MHOM/BR/Josefa assessed as parasite growth inhibition after 72 hrs by Neubauer hemocytometer. The data set is classed as functional, organism-based.
A short description of data set [3]: Cytotoxicity against African green monkey Vero cells assessed as growth inhibition. The data set is classed as cell-based. The settings on record: chlorocebus sabaeus.
Data set [4] is described as follows: Selectivity index, ratio of CC50 for African green monkey Vero cells to IC50 for epimastigote form of Trypanosoma cruzi Y. The settings on record: read-out: Ratio CC50/IC50. The class given is toxicity.
Data set [5] can be described thus: Selectivity index, ratio of CC50 for African green monkey Vero cells to EC50 for trypomastigote form of Trypanosoma cruzi. The data set is classed as toxicity. The settings on record: read-out: Ratio CC50/EC50.
The nature of data set [6]: Selectivity index, ratio of CC50 for African green monkey Vero cells to IC50 for promastigote form of Leishmania amazonensis MHOM/BR/Josefa. The conditions noted are these: read-out: Ratio CC50/IC50. The data set is classed as toxicity.

In general, IC50 refers to the concentration needed to halve the response being measured. One may read the EC50 as the midpoint of the concentration-response curve. What is called CC50 is the concentration giving 50% cytotoxicity.

Regarding `COc1cc(/C=C2\CCC/C(=C\c3cc(OC)c(OC)c(OC)c3)C2=O)cc(OC)c1OC`, the results for the IC50 in the data set on Trypanosoma cruzi [1] and with Leishmania amazonensis were 9.5 µM and 17 µM, respectively. In addition, the EC50 in the data set with Trypanosoma cruzi [2] came out at 69.5 µM. The CC50 in data set [3] was determined as 155 µM. Moreover, the values for the selectivity ratio in data set [4], in data set [5] and in data set [6] were 16.3, 2.2 and 9.1, respectively.
For `COc1ccc(/C=C2\CCC/C(=C\c3c(Cl)cccc3Cl)C2=O)cc1`, the IC50 was 20.5 µM with Trypanosoma cruzi [1] and 5.2 µM with Leishmania amazonensis. Moreover, the EC50 in the data set with Trypanosoma cruzi [2] was found to be 54.2 µM. Besides, the CC50 in data set [3] was found to be 232 µM. Moreover, the selectivity ratio in data set [4] worked out at 11.3; in data set [5], 4.3; in data set [6] it was 44.6.
Take `COc1ccc(/C=C2\CCC/C(=C\c3cccc(OC)c3OC)C2=O)cc1`: the results for the 50% inhibitory concentration (IC50) in the data set with Trypanosoma cruzi [1] and in the data set on Leishmania amazonensis were 5.2 µM and 8.9 µM, respectively. The EC50 in the data set with Trypanosoma cruzi [2] is 27.4 µM. Besides, the CC50 in data set [3] is 401 µM. For the same compound, the selectivity ratio in data set [4] was 77.2; in data set [5] it was 14.6; in data set [6], 45.1.
With `COc1cccc(/C=C2\CCC/C(=C\c3ccccc3)C2=O)c1OC`, the IC50 with Trypanosoma cruzi [1] was found to be 25.8 µM; with Leishmania amazonensis it was 16.7 µM. Moreover, the EC50 with Trypanosoma cruzi [2] came to 60 µM. For the same compound, the CC50 in data set [3] turned out to be 33.5 µM. In addition, the selectivity ratio in data set [4] stood at 1.3; in data set [5], 0.6; in data set [6] it was 2.
`O=C1/C(=C/c2c(Cl)cccc2Cl)CCC/C1=C\c1c(Cl)cccc1Cl`: the IC50 in the data set on Trypanosoma cruzi [1] is 83.9 µM; with Leishmania amazonensis, 4.9 µM. Further, the EC50 in the data set on Trypanosoma cruzi [2] turned out to be 93.5 µM. Further, the CC50 in data set [3] was determined as 574 µM. The selectivity ratio in data set [4] came to 6.8; in data set [5], 6.1; in data set [6] it was 117.
In the case of `O=C1/C(=C/c2ccc(Cl)cc2)CCC/C1=C\c1ccc(Cl)cc1`, the IC50 with Trypanosoma cruzi [1] worked out at 16.2 µM; in the data set with Leishmania amazonensis, 3.6 µM. Moreover, the EC50 in the data set on Trypanosoma cruzi [2] worked out at 85.3 µM. Besides, the CC50 in data set [3] amounted to 32.1 µM. In addition, the selectivity ratio was 2 in data set [4], 0.4 in data set [5] and 8.9 in data set [6].
`O=C1/C(=C/c2ccc(Br)cc2)CCC/C1=C\c1ccc(Br)cc1`: the IC50 with Trypanosoma cruzi [1] was 29.3 µM; with Leishmania amazonensis, 4.2 µM. The EC50 in the data set with Trypanosoma cruzi [2] was determined as 49 µM. Besides, the CC50 in data set [3] came out at 58 µM. Moreover, the selectivity ratio in data set [4] stood at 2; in data set [5], 1.2; in data set [6] it was 13.8.
Turning to `O=C1/C(=C/c2cccc(Br)c2)CCC/C1=C\c1cccc(Br)c1`, the IC50 is 33.3 µM in the data set with Trypanosoma cruzi [1] and 2.3 µM in the data set with Leishmania amazonensis. For the same compound, in the data set with Trypanosoma cruzi [2], the EC50 came to 63.2 µM. The CC50 in data set [3] stood at 35.9 µM. Also, the selectivity ratio is 1.1 in data set [4], 0.6 in data set [5] and 15.6 in data set [6].
For the compound `COc1cccc(/C=C2\CCC/C(=C\c3cccc(OC)c3OC)C2=O)c1OC`, the IC50 with Trypanosoma cruzi [1] amounted to 23.6 µM; in the data set with Leishmania amazonensis it was 4.1 µM. Also, the EC50 in the data set on Trypanosoma cruzi [2] is 27 µM. Also, the CC50 in data set [3] came out at 24.9 µM. The selectivity ratio in data set [4] turned out to be 1.1; in data set [5] it was 0.9; in data set [6], 6.1.
Consider `O=C1/C(=C/c2ccc(F)cc2)CCC/C1=C\c1ccc(F)cc1`, for which the results for the IC50 in the data set on Trypanosoma cruzi [1] and in the data set on Leishmania amazonensis were 24.7 µM and 4.3 µM, respectively. Besides, in the data set on Trypanosoma cruzi [2], the EC50 was found to be 68.7 µM. Moreover, in data set [3], the CC50 worked out at 34.4 µM. For the same compound, the selectivity ratio is 1.4 in data set [4], 0.5 in data set [5] and 8 in data set [6].
Turning to `O=C1/C(=C/c2ccccc2Cl)CCC/C1=C\c1ccccc1Cl`, the IC50 with Trypanosoma cruzi [1] amounted to 27.8 µM; in the data set with Leishmania amazonensis, 4.6 µM. Further, in the data set with Trypanosoma cruzi [2], the EC50 worked out at 36.2 µM. Moreover, the CC50 in data set [3] was 30.6 µM. The figures for the selectivity ratio in data set [4], in data set [5] and in data set [6] were 1.1, 0.8 and 6.7, respectively.
On to `O=C1/C(=C/c2ccccc2)CCC/C1=C\c1ccccc1` [2,6-DIBENZYLIDENECYCLOHEXANONE], for which the IC50 in the data set with Trypanosoma cruzi [1] turned out to be 18.4 µM; with Leishmania amazonensis it was 2.8 µM. Besides, in the data set on Trypanosoma cruzi [2], the EC50 stood at 76.2 µM. In data set [3], the CC50 was determined as 40.6 µM. Also, the values for the selectivity ratio in data set [4], in data set [5] and in data set [6] were 2.2, 0.5 and 14.5, respectively.
